Laboratory results: patent publication US20080200404A1, “Novel Antimalarial 9A-Carbamoyl-Aminoalkyl and 9A-Thiocarbamoyl-Aminoalkyl Azalides” (priority 2005, published 2008)
Converted amounts (≈) assume the structure as drawn. Where two headings read alike, the source gives them in different places.

How the values were obtained:
Type in all cases: cell-based
[1] = test system: Plasmodium falciparum TM91C235; assay: In vitro antimalarial [3H]-hypoxanthine incorporation assay, TM91C235; conditions: Plasmodium falciparum; P. falciparum TM91C235 (multiple drug resistant isolate), 72 hours exposure
Method in brief: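 Growth was read by [3H]-hypoxanthine incorporation after 72 h total incubation, as CPM normalized to the mean of untreated infected controls. Erythrocytic-stage TM91C235 (0.4% parasitemia, 1% hematocrit, ALBUMAX medium without folate or PABA, 5% O2/5% CO2, 37° C) was first exposed 48 h to compound at three levels, 25–25,000 ng/ml, in duplicate.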

[2] = test system: Plasmodium falciparum clone CDC/Sierra Leone I (D-6); assay: In vitro antimalarial [3H]-hypoxanthine incorporation serial dilution assay, D6; conditions: Plasmodium falciparum, D6, 72 h, P. falciparum D6, 72 hours exposure
Method in brief: (§1)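 IC50 came from logistic fitting of eleven two-fold compound dilutions, read as [3H]-hypoxanthine uptake into parasite DNA relative to untreated infected wells after 72 h. Parasites were grown in A+ human erythrocytes (6%) in RPMI-1640 with plasma or ALBUMAX at 37° C, 5% CO2, 5% O2.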

[3] = test system: Plasmodium falciparum clone CDC/Indochina III (W-2); assay: In vitro antimalarial [3H]-hypoxanthine incorporation serial dilution assay, W2; conditions: Plasmodium falciparum; P. falciparum W2, 72 hours exposure
Method in brief: as §1

[4] = compared with azithromycin, read-out: IC50 D6 (class symbol)

| SMILES | IC50 [1] | IC50 [2, 4] | IC50 [3] | IC50 ([2]; read-out: IC50 D6) |
| --- | --- | --- | --- | --- |
| C=CCNC(=S)NCCCN1C[C@H](C)C[C@@](C)(O)[C@H](O[C@@H]2O[C@H](C)C[C@H](N(C)C)[C@H]2O)[C@@H](C)[C@H](O[C@H]2C[C@@](C)(OC)[C@@H](O)[C@H](C)O2)[C@@H](C)C(=O)O[C@H](CC)[C@@](C)(O)[C@H](O)[C@H]1C [Example 111] | 0.459 µg/mL (≈ 0.514 µM) | > 0.797 µg/mL | 0.246 µg/mL (≈ 0.276 µM) |  |
| CCOC(=O)c1ccc(NC(=S)NCCCN2C[C@H](C)C[C@@](C)(O)[C@H](O[C@@H]3O[C@H](C)C[C@H](N(C)C)[C@H]3O)[C@@H](C)[C@H](O[C@H]3C[C@@](C)(OC)[C@@H](O)[C@H](C)O3)[C@@H](C)C(=O)O[C@H](CC)[C@@](C)(O)[C@H](O)[C@H]2C)cc1 [Example 112] | 0.107 µg/mL (≈ 0.107 µM) |  | 0.0709 µg/mL (≈ 0.0709 µM) | 0.121 µg/mL (≈ 0.121 µM) |
| CC[C@H]1OC(=O)[C@H](C)[C@@H](O[C@H]2C[C@@](C)(OC)[C@@H](O)[C@H](C)O2)[C@H](C)[C@@H](O[C@@H]2O[C@H](C)C[C@H](N(C)C)[C@H]2O)[C@](C)(O)C[C@@H](C)CN(CCCNC(=S)NC2CC2)[C@H](C)[C@@H](O)[C@]1(C)O [Example 113] | 0.866 µg/mL (≈ 0.972 µM) | > 0.797 µg/mL | 0.605 µg/mL (≈ 0.679 µM) |  |
| CC[C@H]1OC(=O)[C@H](C)[C@@H](O[C@H]2C[C@@](C)(OC)[C@@H](O)[C@H](C)O2)[C@H](C)[C@@H](O[C@@H]2O[C@H](C)C[C@H](N(C)C)[C@H]2O)[C@](C)(O)C[C@@H](C)CN(CCCNC(=S)Nc2ccc(N(CC)CC)cc2)[C@H](C)[C@@H](O)[C@]1(C)O.O=CO [Example 121] | 0.312 µg/mL |  | 0.714 µg/mL | 0.799 µg/mL |
| CC[C@H]1OC(=O)[C@H](C)[C@@H](O[C@H]2C[C@@](C)(OC)[C@@H](O)[C@H](C)O2)[C@H](C)[C@@H](O[C@@H]2O[C@H](C)C[C@H](N(C)C)[C@H]2O)[C@](C)(O)C[C@@H](C)CN(CCCNC(=S)N[C@H]2CCCC[C@@H]2OCc2ccccc2)[C@H](C)[C@@H](O)[C@]1(C)O.O=CO [Example 123] | 0.137 µg/mL |  | 0.297 µg/mL | 0.7 µg/mL |
| CC[C@H]1OC(=O)[C@H](C)[C@@H](O[C@H]2C[C@@](C)(OC)[C@@H](O)[C@H](C)O2)[C@H](C)[C@@H](O[C@@H]2O[C@H](C)C[C@H](N(C)C)[C@H]2O)[C@](C)(O)C[C@@H](C)CN(CCCNC(=S)Nc2ccc(Cl)c(C(F)(F)F)c2)[C@H](C)[C@@H](O)[C@]1(C)O [Example 124] | 0.0122 µg/mL (≈ 0.0118 µM) |  | 0.0575 µg/mL (≈ 0.0558 µM) | 0.0559 µg/mL (≈ 0.0543 µM) |
| CC[C@H]1OC(=O)[C@H](C)[C@@H](O[C@H]2C[C@@](C)(OC)[C@@H](O)[C@H](C)O2)[C@H](C)[C@@H](O[C@@H]2O[C@H](C)C[C@H](N(C)C)[C@H]2O)[C@](C)(O)C[C@@H](C)CN(CCCNC(=S)NC(c2ccccc2)(c2ccccc2)c2ccccc2)[C@H](C)[C@@H](O)[C@]1(C)O.O=CO [Example 125] | 0.0364 µg/mL |  | 0.0422 µg/mL | 0.142 µg/mL |
| CC[C@H]1OC(=O)[C@H](C)[C@@H](O[C@H]2C[C@@](C)(OC)[C@@H](O)[C@H](C)O2)[C@H](C)[C@@H](O[C@@H]2O[C@H](C)C[C@H](N(C)C)[C@H]2O)[C@](C)(O)C[C@@H](C)CN(CCCNC(=S)Nc2cc(-c3ccccc3)ccc2OC)[C@H](C)[C@@H](O)[C@]1(C)O [Example 127] | 0.0571 µg/mL (≈ 0.0553 µM) |  | 0.117 µg/mL (≈ 0.114 µM) | 0.06 µg/mL (≈ 0.0581 µM) |
| CC[C@H]1OC(=O)[C@H](C)[C@@H](O[C@H]2C[C@@](C)(OC)[C@@H](O)[C@H](C)O2)[C@H](C)[C@@H](O[C@@H]2O[C@H](C)C[C@H](N(C)C)[C@H]2O)[C@](C)(O)C[C@@H](C)CN(CCCNC(=S)NC23CC4CC(CC(C4)C2)C3)[C@H](C)[C@@H](O)[C@]1(C)O [Example 130] | 0.15 µg/mL (≈ 0.152 µM) |  | 0.207 µg/mL (≈ 0.21 µM) | 0.545 µg/mL (≈ 0.553 µM) |
| CC[C@H]1OC(=O)[C@H](C)[C@@H](O[C@H]2C[C@@](C)(OC)[C@@H](O)[C@H](C)O2)[C@H](C)[C@@H](O[C@@H]2O[C@H](C)C[C@H](N(C)C)[C@H]2O)[C@](C)(O)C[C@@H](C)CN(CCCNC(=S)Nc2cccc(F)c2)[C@H](C)[C@@H](O)[C@]1(C)O.O=CO [Example 131] | 0.115 µg/mL |  | 0.198 µg/mL | 0.507 µg/mL |
| CC[C@H]1OC(=O)[C@H](C)[C@@H](O[C@H]2C[C@@](C)(OC)[C@@H](O)[C@H](C)O2)[C@H](C)[C@@H](O[C@@H]2O[C@H](C)C[C@H](N(C)C)[C@H]2O)[C@](C)(O)C[C@@H](C)CN(CCCNC(=S)Nc2ccc(Cl)c(Cl)c2)[C@H](C)[C@@H](O)[C@]1(C)O [Example 132] | 0.0839 µg/mL (≈ 0.0842 µM) |  | 0.229 µg/mL (≈ 0.229 µM) | 0.295 µg/mL (≈ 0.296 µM) |
| CC[C@H]1OC(=O)[C@H](C)[C@@H](O[C@H]2C[C@@](C)(OC)[C@@H](O)[C@H](C)O2)[C@H](C)[C@@H](O[C@@H]2O[C@H](C)C[C@H](N(C)C)[C@H]2O)[C@](C)(O)C[C@@H](C)CN(CCCNC(=S)Nc2ccc(F)c(F)c2F)[C@H](C)[C@@H](O)[C@]1(C)O [Example 133] | 0.0723 µg/mL (≈ 0.0737 µM) |  | 0.162 µg/mL (≈ 0.165 µM) | 0.441 µg/mL (≈ 0.449 µM) |
| CC[C@H]1OC(=O)[C@H](C)[C@@H](O[C@H]2C[C@@](C)(OC)[C@@H](O)[C@H](C)O2)[C@H](C)[C@@H](O[C@@H]2O[C@H](C)C[C@H](N(C)C)[C@H]2O)[C@](C)(O)C[C@@H](C)CN(CCCNC(=S)Nc2ccc(OC(F)F)cc2)[C@H](C)[C@@H](O)[C@]1(C)O.O=CO [Example 134] | 0.0997 µg/mL |  | 0.279 µg/mL | 0.398 µg/mL |
| CC[C@H]1OC(=O)[C@H](C)[C@@H](O[C@H]2C[C@@](C)(OC)[C@@H](O)[C@H](C)O2)[C@H](C)[C@@H](O[C@@H]2O[C@H](C)C[C@H](N(C)C)[C@H]2O)[C@](C)(O)C[C@@H](C)CN(CCCNC(=S)Nc2ccccc2F)[C@H](C)[C@@H](O)[C@]1(C)O.O=CO [Example 136] | 0.121 µg/mL |  | 0.396 µg/mL | 0.978 µg/mL |
| CC[C@H]1OC(=O)[C@H](C)[C@@H](O[C@H]2C[C@@](C)(OC)[C@@H](O)[C@H](C)O2)[C@H](C)[C@@H](O[C@@H]2O[C@H](C)C[C@H](N(C)C)[C@H]2O)[C@](C)(O)C[C@@H](C)CN(CCCNC(=S)Nc2ccc(Br)cc2)[C@H](C)[C@@H](O)[C@]1(C)O.O=CO [Example 137] | 0.182 µg/mL |  | 0.178 µg/mL | 0.274 µg/mL |
| CC[C@H]1OC(=O)[C@H](C)[C@@H](O[C@H]2C[C@@](C)(OC)[C@@H](O)[C@H](C)O2)[C@H](C)[C@@H](O[C@@H]2O[C@H](C)C[C@H](N(C)C)[C@H]2O)[C@](C)(O)C[C@@H](C)CN(CCCNC(=S)Nc2ccc(-n3cccn3)cc2)[C@H](C)[C@@H](O)[C@]1(C)O.O=CO [Example 140] | 0.105 µg/mL |  | 0.114 µg/mL | 0.166 µg/mL |
| CC[C@H]1OC(=O)[C@H](C)[C@@H](O[C@H]2C[C@@](C)(OC)[C@@H](O)[C@H](C)O2)[C@H](C)[C@@H](O[C@@H]2O[C@H](C)C[C@H](N(C)C)[C@H]2O)[C@](C)(O)C[C@@H](C)CN(CCCNC(=S)Nc2ccc(S(=O)(=O)N3CCCCC3)cc2)[C@H](C)[C@@H](O)[C@]1(C)O [Example 141] | 0.0731 µg/mL (≈ 0.068 µM) |  | 0.057 µg/mL (≈ 0.0531 µM) | 0.188 µg/mL (≈ 0.175 µM) |
| CC[C@H]1OC(=O)[C@H](C)[C@@H](O[C@H]2C[C@@](C)(OC)[C@@H](O)[C@H](C)O2)[C@H](C)[C@@H](O[C@@H]2O[C@H](C)C[C@H](N(C)C)[C@H]2O)[C@](C)(O)C[C@@H](C)CN(CCCNC(=S)Nc2ccc(N(C)C)c3ccccc23)[C@H](C)[C@@H](O)[C@]1(C)O.O=CO [Example 142] | 0.192 µg/mL |  | 0.186 µg/mL | 0.348 µg/mL |
| CC[C@H]1OC(=O)[C@H](C)[C@@H](O[C@H]2C[C@@](C)(OC)[C@@H](O)[C@H](C)O2)[C@H](C)[C@@H](O[C@@H]2O[C@H](C)C[C@H](N(C)C)[C@H]2O)[C@](C)(O)C[C@@H](C)CN(CCCNC(=S)NCc2ccco2)[C@H](C)[C@@H](O)[C@]1(C)O.O=CO [Example 143] | 0.234 µg/mL |  | 0.439 µg/mL | 0.322 µg/mL |
| CC[C@H]1OC(=O)[C@H](C)[C@@H](O[C@H]2C[C@@](C)(OC)[C@@H](O)[C@H](C)O2)[C@H](C)[C@@H](O[C@@H]2O[C@H](C)C[C@H](N(C)C)[C@H]2O)[C@](C)(O)C[C@@H](C)CN(CCCNC(=S)Nc2ccc(Oc3ccccc3)nc2)[C@H](C)[C@@H](O)[C@]1(C)O.O=CO [Example 146] | 0.142 µg/mL |  | 0.117 µg/mL | 0.23 µg/mL |
| CC[C@H]1OC(=O)[C@H](C)[C@@H](O[C@H]2C[C@@](C)(OC)[C@@H](O)[C@H](C)O2)[C@H](C)[C@@H](O[C@@H]2O[C@H](C)C[C@H](N(C)C)[C@H]2O)[C@](C)(O)C[C@@H](C)CN(CCCNC(=S)Nc2ccsc2C(=O)OC)[C@H](C)[C@@H](O)[C@]1(C)O.O=CO [Example 147] | 0.343 µg/mL |  | 0.389 µg/mL | 0.469 µg/mL |
